Patent US9145376B2, “Quinazolinone inhibitors of dynein” (The Rockefeller University, priority 2011, dated 2015)

Assays:
Assay type in all cases: cell-based
[1] = test system: Gli3 processing in Shh-EGFP cells; experiment: Quantitative assessment of Hh ligand-dependent Gli3 processing; conditions: Shh-EGFP cells stimulated with Shh-N, 16 hours
Description: Shh-EGFP cells were seeded into 12-well plate at a density of 120,000 cells/well in DMEM containing 10% calf serum. 100 U/mL penicillin, and 0.1 mg/mL streptomycin. After being cultured for 24 hours, the cells were transferred into DMEM containing 0.5% calf serum, 10% Shh-conditioned medium, the antibiotics described above, and either individual compounds or DMSO. The cells were cultured for an additional 16 hours, washed with PBS, and then lysed by incubation on ice with SDS-PAGE loading buffer composed of 8% glycerol, 20 mM Tris-HCl, pH 6.8, 2% SDS, 100 mM DTT, 1 mM PMSF, 20 mM NaF, 2 mM Na3VO4, and an EDTA-free protease inhibitor cocktail (Roche). The lysed samples were heated to 100° C. for 7 minutes, loaded onto 3-8% Criterion XT Tris-Acetate polyacrylamide gels (Bio-Rad), electrophoresed in XT Tricine buffer (Bio-Rad), and transferred onto PVDF membranes. The membranes were dehydrated with methanol and probed overnight at 4° C. with goat polyclonal anti-Gli3 antibody (0.4 μg/mL: R & D Systems, AF3690) in PBS containing 4% non-fat dry milk and 0.1% Tween-20 (immunoblot blocking buffer). The blots were then washed 4×1 minutes in PBS and incubated with horseradish peroxidase-conjugated bovine polyclonal anti-goat IgG antibody (0.04 μg/mL, Jackson ImmunoResearch, 805-035-180) in immunoblot blocking buffer for 1 hour at room temperature. The membranes were next washed 4×1 minutes in PBS and visualized using SuperSignal West Dura Extended Duration substrate (Thermo Scientific) and a ChemiDoc XRS imaging system (Bio-Rad). Band intensities of Gli3FL and Gli3R where quantified using Quantity One software (Bio-Rad), and five independent experiments were used to determine the average Gli3FL/Gli3R ratio for each compound.

[2] = test system: mitotic spindle of Shh-EGFP (NIH-3T3) cells (cytoplasmic dynein 1); experiment: Imaging of mitotic spindle assembly; conditions: 50 μM, 60 minutes, MG132-arrested cells
Text: In addition to trafficking macromolecules out of the primary cilium, cytoplasmic dynein complexes have other cellular functions. For example, cytoplasmic dynein 1 acts in concert with dynactin and the nuclear protein NuMA to crosslink and focus the minus ends of microtubules within the mitotic spindle. These actions create the canonical fusiform shape and localize γ-tubulin-containing, microtubule-nucleating complexes to the spindle poles. Cytoplasmic dynein 1 inhibition by blocking antibodies or dominant negative constructs disrupts mitotic spindle assembly, resulting in splayed microtubule ends and reduced γ-tubulin recruitment. To determine whether ciliobrevins can recapitulate these phenotypes, we treated a metaphase-enriched population of NIH-3T3 cells with 50 μM of either example 31 or […] for one hour and examined their mitotic structures by confocal immunofluorescence microscopy.
Shh-EGFP cells were cultured until they achieved approximately 70% confluency and then split 1:5 into 24-well plates containing, poly-D-lysine-coated 12-mm glass coverslips in DMEM containing 10% calf serum, 100 U/mL penicillin, and 0.1 mg/mL streptomycin. […]

Xenopus melanophores = experiment: Melanosome aggregation assay; conditions: for melanosome aggregation: melatonin-induced aggregation
Text: Another cytoplasmic dynein 1-dependent process is the aggregation of melanin-containing vesicles in pigment cells, the mechanism by which certain organisms adapt their coloration in response to environmental cues. For example, cytoplasmic dynein 1 transports melanosomes toward the center of Xenopus melanophores stimulated with the small-molecule melatonin, counterbalancing the kinesin-2- and myosin-V-driven dispersal of these pigment granules toward the cell periphery in response to melanocyte-stimulating hormone (MSH). To determine if melanosome trafficking is sensitive to the ciliobrevins, we cultured Xenopus melanophores with MSH to uniformly disperse their melanosomes and then treated them with melatonin and various concentrations of test compounds.
Immortalized Xenopus melanophores were cultured in 0.7×L15 medium supplemented with 10% fetal bovine serum, 30 mg/L L-glutamine, and 5 mg/L insulin. The cell were cultured on poly-D-lysine-coated coverslips in 12-well plates for 12 to 24 hours prior to the melanosome aggregation assay. On the day of the experiment, the melanophores were cultured in serum-free medium for 30 minutes, stimulated with 100 nM melanocyte-stimulating hormone (MSH) to uniformly disperse the melanosomes, and then incubated with medium containing individual compounds or DMSO for 10 minutes. Melanosome aggregation was then induced by treating the cells with 10 nM melatonin in the presence of the test compound. The melanophores were either imaged immediately by time-lapse microscopy or fixed after 30 minutes with 0.7×PBS containing 4% paraformaldehyde.
The cells were then washed several times with medium containing melatonin alone and imaged.

SMILES	Gli3FL/Gli3R ratio [1]	Shh-N-dependent Gli3FL phosphorylation [1]	mitotic spindle morphology (γ-tubulin-positive pole focusing) [2]	melanosome aggregation (Xenopus melanophores; concentrations up to 40 μM)	melanosome aggregation (Xenopus melanophores; 10 μM dose)	reversibility of effect on melanosome aggregation (washout) (Xenopus melanophores; washout into medium containing melatonin alone)
N#C/C(C(=O)c1ccc(Cl)cc1Cl)=C1\NC(=O)c2ccccc2N1 [Example 1, 3-(2,4-dichlorophenyl)-3-oxo-2-(4-oxo-3,4-dihydroquinazolin-2(1H)-ylidene)propanenitrile]	altered the Gli3FL/Gli3R ratio	reduced	–	–	–	–
N#C/C(C(=O)c1ccccc1)=C1\NC(=O)c2ccccc2N1 [Example 16, 3-oxo-2-(4-oxo-3,4-dihydroquinazolin-2(1H)-ylidene)-3-phenylpropanenitrile]	–	–	normal spindle morphologies	no discernible effect	–	–
N#C/C(C(=O)c1ccc(Cl)cc1Cl)=C1\NC(=O)c2ccc(Cl)cc2N1 [Example 31, 2-(7-chloro-4-oxo-3,4-dihydroquinazolin-2(1H)-ylidene)-3-(2,4-dichlorophenyl)-3-oxo-propanenitrile]	altered the Gli3FL/Gli3R ratio	reduced	failed to achieve mitotic spindles with focused γ-tubulin-positive poles	–	significantly inhibited melanosome aggregation	completely reversible
